Values after ≈ are worked out from the molar mass of the structure shown.
How the values were obtained:
Assay type in all cases: functional
Bacillus subtilis = assay: Antimicrobial activity against Bacillus subtilis ATCC 6633 after 48 hr by two-fold serial broth dilution method; settings: ATCC 6633, 48 h
Staphylococcus aureus [1] = assay: Antimicrobial activity against Staphylococcus aureus DSM 1104 after 48 hr by two-fold serial broth dilution method; settings: DSM 1104, 48 h
Pseudomonas aeruginosa [2] = assay: Antimicrobial activity against Pseudomonas aeruginosa ATCC 10145 after 48 hr by two-fold serial broth dilution method; settings: ATCC 10145, 48 h
Staphylococcus aureus [3] = assay: Antimicrobial activity against Staphylococcus aureus DSM 1104 after 48 hr by two-fold serial broth dilution method relative to ampicillin
Candida albicans [4] = assay: Antimicrobial activity against Candida albicans DSM 70014 after 48 hr by two-fold serial broth dilution method; settings: DSM 70014, 48 h
Escherichia coli = assay: Antimicrobial activity against Escherichia coli ATCC 11775 after 48 hr by two-fold serial broth dilution method; settings: ATCC 11775, 48 h
Candida albicans [5] = assay: Antimicrobial activity against Candida albicans DSM 70014 after 48 hr by two-fold serial broth dilution method relative to clotrimazole
Pseudomonas aeruginosa [6] = assay: Ratio of ampicillin MIC to compound MIC for Pseudomonas aeruginosa ATCC 10145 after 48 hr by two-fold serial broth dilution method
HOP-92 = assay: Growth inhibition of Homo sapiens (human) HOP92 cells at 10 uM after 48 hr by SRB assay; settings: HOP-92, 48 h, read-out: GI

| MIC (Bacillus subtilis) | MIC (Staphylococcus aureus [1]) | MIC (Pseudomonas aeruginosa [2]) | MIC (Candida albicans [4]) | MIC (Escherichia coli) | Compound | MBC (Bacillus subtilis) | MBC (Staphylococcus aureus [1]) | MBC (Pseudomonas aeruginosa [2]) | Activity (Staphylococcus aureus [3]) | MFC (Candida albicans [4]) | MBC (Escherichia coli) | Activity (Candida albicans [5]) | Ratio (Pseudomonas aeruginosa [6]) | inhibition of growth at 10 µM (HOP-92) |
| --- | --- | --- | --- | --- | --- | --- | --- | --- | --- | --- | --- | --- | --- | --- |
| 25 µg/mL (≈ 49.6 µM) | 12.5 µg/mL (≈ 24.8 µM) | 50 µg/mL (≈ 99.3 µM) | 12.5 µg/mL (≈ 24.8 µM) | 25 µg/mL (≈ 49.6 µM) | COc1ccc(OC)c(/C=C/c2nnc(SCC(=O)c3cc(O)ccc3O)n2-c2ccc(C)cc2)c1 | 50 µg/mL (≈ 99.3 µM) | 25 µg/mL (≈ 49.6 µM) | 50 µg/mL (≈ 99.3 µM) | 40% | 25 µg/mL (≈ 49.6 µM) | 50 µg/mL (≈ 99.3 µM) | 40% | – | – |
| 12.5 µg/mL (≈ 38.7 µM) | 25 µg/mL (≈ 77.3 µM) | 12.5 µg/mL (≈ 38.7 µM) | 50 µg/mL (≈ 155 µM) | 50 µg/mL (≈ 155 µM) | COc1ccc(OC)c(/C=C/c2nnc(Nc3ccccc3)o2)c1 | 25 µg/mL (≈ 77.3 µM) | 50 µg/mL (≈ 155 µM) | 25 µg/mL (≈ 77.3 µM) | – | 50 µg/mL (≈ 155 µM) | 50 µg/mL (≈ 155 µM) | – | 4 | 37.5% |
